In US10745416B2, “Macrocyclic compounds for treating disease” (Turning Point Therapeutics, Inc., priority 2017, dated 2020) one finds GI50 and IC50 data, which are given here for 13 compounds.

Holding throughout (assay): Cell proliferation assay (CellTiter-Glo, 72 hours)
(In general: ATP-based viability assays read luminescence as a measure of living cells.)

One assay addresses T1, BaF3 KIF5B-RET (Homo sapiens, UniProt P07949).
T1 construct: fused on or other part: P33176 (Kinesin-1 heavy chain)
The class given is cell-based. Particulars: anti-cell proliferation, read-out: BaF3 KIF5B-RET IC50. An excerpt: (§1) The KIF5B-RET gene was synthesized at GenScript and cloned into pCDH-CMV-MCS-EF1-Puro plasmid (System Biosciences, Inc). KIF5B-RET point mutation V804M was generated at GenScript by PCR and confirmed by sequencing. Ba/F3-KIF5B-RET wild type and mutant were generated by transducing Ba/F3 cells with lentivirus containing KIF5B-RET wide type or mutant. Stable cell lines were selected by puromycin treatment, followed by IL-3 withdrawal. Briefly, 5×10^6 Ba/F3 cells were transduced with lentivirus supernatant in the presence of 8 μg/mL protamine sulfate. The transduced cells were subsequently selected with 1 µg/mL puromycin in the presence of IL3-containing medium RPMI1640, plus 10% FBS. After 10-12 days of selection, the surviving cells were further selected for IL3 independent growth.
(§2) Two thousand cells per well were seeded in 384 well white plate for 24 hrs, and then treated with compounds for 72 hours (37° C., 5% CO2). Cell proliferation was measured using CellTiter-Glo luciferase-based ATP detection assay (Promega) following the manufactures's protocol. IC50 determinations were performed using GraphPad Prism software (GraphPad, Inc., San Diego, Calif.).

For another assay, the target named is T2, BaF3 KIF5B-RET_V804M (Homo sapiens, UniProt P07949, V804M, cells depend on it).
T2 construct: fused on or other part: P33176 (Kinesin-1 heavy chain)
T2 sequence (P07949 whole entry V804M, the tested form may be a part): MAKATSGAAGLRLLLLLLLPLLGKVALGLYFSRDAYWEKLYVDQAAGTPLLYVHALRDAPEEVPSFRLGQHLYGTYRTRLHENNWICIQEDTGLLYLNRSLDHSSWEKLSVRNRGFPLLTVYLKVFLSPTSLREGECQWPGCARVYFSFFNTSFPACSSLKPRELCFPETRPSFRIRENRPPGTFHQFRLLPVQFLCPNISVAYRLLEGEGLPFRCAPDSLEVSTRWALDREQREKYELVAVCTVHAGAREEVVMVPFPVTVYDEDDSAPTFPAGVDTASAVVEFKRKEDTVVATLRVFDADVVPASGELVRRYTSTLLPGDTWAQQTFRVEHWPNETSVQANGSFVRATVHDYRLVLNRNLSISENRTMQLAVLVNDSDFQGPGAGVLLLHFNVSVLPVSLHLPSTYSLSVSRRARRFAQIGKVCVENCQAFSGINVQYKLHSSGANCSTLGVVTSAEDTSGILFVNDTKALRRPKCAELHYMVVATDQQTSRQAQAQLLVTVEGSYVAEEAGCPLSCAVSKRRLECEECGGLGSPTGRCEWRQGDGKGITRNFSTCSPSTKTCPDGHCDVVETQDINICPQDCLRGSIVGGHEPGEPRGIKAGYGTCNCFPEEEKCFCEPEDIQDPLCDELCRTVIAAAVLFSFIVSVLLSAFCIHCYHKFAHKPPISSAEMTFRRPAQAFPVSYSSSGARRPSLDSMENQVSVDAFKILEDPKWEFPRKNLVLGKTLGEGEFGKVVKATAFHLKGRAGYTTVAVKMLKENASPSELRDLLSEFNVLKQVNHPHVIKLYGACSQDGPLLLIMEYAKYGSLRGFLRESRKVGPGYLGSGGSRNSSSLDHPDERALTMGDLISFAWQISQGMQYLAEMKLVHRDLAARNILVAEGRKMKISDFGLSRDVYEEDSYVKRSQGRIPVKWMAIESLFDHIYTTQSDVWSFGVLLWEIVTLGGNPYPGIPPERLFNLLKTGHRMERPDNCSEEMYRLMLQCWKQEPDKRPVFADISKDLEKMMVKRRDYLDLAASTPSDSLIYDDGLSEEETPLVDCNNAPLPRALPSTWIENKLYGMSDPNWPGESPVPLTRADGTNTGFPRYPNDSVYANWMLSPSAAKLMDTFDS
It counts as cell-based. Particulars: anti-cell proliferation, read-out: BaF3 KIF5B-RET_V804M IC50.
Description: as §1, §2

A further assay has as its target T3, BaF3 EML4-ALK (Homo sapiens, UniProt Q9UM73).
T3 construct: The EML4-ALK gene (variant 1) was synthesized at GenScript and cloned into pCDH-CMV-MCS-EF1-Puro plasmid (System Biosciences, Inc); fused on or other part: Q9HC35 (Echinoderm microtubule-associated protein-like 4)
It counts as cell-based. Particulars: anti-cell proliferation. On the procedure:
The EML4-ALK gene (variant 1) was synthesized at GenScript and cloned into pCDH-CMV-MCS-EF1-Puro plasmid (System Biosciences, Inc). Ba/F3-EML4-ALK wild type were generated by transducing Ba/F3 cells with lentivirus containing EML4-ALK wide type. Stable cell lines were selected by puromycin treatment, followed by IL-3 withdrawal. Briefly, 5×10^6 Ba/F3 cells were transduced with lentivirus supernatant in the presence of 8 μg/mL protamine sulfate. The transduced cells were subsequently selected with 1 μg/mL puromycin in the presence of IL3-containing medium RPMI1640, plus 10% FBS. After 10-12 days of selection, the surviving cells were further selected for IL3 independent growth.
as §2

The subject of a further assay is KG-1. The class given is cell-based, human. Particulars: Homo sapiens, KG-1, anti-cell proliferation. As for the experimental part: (§3) Human medulla thyroid carcinoma cell line TT (containing RET […] mutation) and acute myelogenous cell line KG-1 were purchased from ATCC. Human colon cancer cell line KMI2 (containing TPM3-TRKA) was obtained from NCI.
as §2

Another assay deals with KM12 cell (TPM3-TRKA). The class given is cell-based, human. Particulars: Homo sapiens, KM12, anti-cell proliferation. As for the experimental part: as §3, §2
The next assay has as its target T4, BaF3 KIF5B-RET_G810R (Homo sapiens, UniProt P07949, G810R, cells depend on it).
T4 construct: fused on or other part: P33176 (Kinesin-1 heavy chain)
It counts as cell-based. Particulars: anti-cell proliferation, read-out: BaF3 KIF5B-RET_G810R IC50.
Description: [The source words this procedure for another variant and reports this variant under the same test.] as §1, §2

T3 sequence (Q9UM73 whole entry, change not shown, the tested form may be a part): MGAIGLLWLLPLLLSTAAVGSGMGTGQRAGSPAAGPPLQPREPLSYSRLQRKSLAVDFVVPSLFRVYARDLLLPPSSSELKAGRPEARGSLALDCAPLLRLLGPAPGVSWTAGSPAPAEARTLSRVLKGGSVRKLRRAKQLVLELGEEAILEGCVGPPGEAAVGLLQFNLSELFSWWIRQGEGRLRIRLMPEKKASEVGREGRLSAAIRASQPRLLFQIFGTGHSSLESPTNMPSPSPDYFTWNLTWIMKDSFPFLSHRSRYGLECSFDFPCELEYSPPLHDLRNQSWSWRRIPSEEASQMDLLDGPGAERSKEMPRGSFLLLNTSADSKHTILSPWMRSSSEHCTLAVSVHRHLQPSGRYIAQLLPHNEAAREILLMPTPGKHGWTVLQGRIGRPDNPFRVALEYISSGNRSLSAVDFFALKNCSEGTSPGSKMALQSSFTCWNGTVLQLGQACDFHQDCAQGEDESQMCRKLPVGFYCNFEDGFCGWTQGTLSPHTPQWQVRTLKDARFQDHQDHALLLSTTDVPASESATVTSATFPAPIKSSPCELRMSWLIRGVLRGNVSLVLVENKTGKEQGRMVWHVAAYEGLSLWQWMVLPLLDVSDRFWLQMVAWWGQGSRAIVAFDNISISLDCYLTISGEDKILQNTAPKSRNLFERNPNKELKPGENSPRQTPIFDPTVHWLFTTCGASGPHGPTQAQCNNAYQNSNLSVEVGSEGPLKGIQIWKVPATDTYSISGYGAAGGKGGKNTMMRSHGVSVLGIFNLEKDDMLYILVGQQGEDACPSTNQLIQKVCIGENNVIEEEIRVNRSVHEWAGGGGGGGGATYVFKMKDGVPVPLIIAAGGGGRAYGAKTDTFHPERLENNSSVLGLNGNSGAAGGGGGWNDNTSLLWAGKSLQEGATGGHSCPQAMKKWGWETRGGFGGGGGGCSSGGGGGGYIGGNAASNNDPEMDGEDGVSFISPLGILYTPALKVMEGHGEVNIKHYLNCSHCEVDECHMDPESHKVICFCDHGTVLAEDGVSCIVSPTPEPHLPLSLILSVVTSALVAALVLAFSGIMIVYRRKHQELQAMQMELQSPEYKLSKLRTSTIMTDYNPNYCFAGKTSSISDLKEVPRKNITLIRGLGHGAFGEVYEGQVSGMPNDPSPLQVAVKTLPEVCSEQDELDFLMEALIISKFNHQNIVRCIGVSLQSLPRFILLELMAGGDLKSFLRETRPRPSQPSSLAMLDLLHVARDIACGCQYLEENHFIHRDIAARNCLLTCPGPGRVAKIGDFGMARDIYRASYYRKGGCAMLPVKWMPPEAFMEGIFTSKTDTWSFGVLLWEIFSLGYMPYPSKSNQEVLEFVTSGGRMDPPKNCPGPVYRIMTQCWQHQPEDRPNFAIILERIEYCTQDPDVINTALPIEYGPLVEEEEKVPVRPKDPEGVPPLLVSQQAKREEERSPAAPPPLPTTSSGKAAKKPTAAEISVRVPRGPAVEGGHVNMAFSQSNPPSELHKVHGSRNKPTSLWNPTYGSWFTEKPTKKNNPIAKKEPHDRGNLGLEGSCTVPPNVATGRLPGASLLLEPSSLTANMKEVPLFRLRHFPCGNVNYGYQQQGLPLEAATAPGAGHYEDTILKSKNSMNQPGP
T4 sequence (P07949 whole entry G810R, the tested form may be a part): as the sequence (P07949 whole entry V804M, the tested form may be a part) above, with M804V, G810R counted along it
T1 sequence (P07949 whole entry, change not shown, the tested form may be a part): as the sequence (P07949 whole entry V804M, the tested form may be a part) above, with M804V counted along it

Broadly, the IC50 is the concentration needed to halve the response being measured. Read a low IC50 as greater potency. As for `C[C@H]1CNC(=O)c2cnn3cc4c(nc23)N(Cc2cc(F)cnc2O1)[C@@H]1CC[C@@H]1O4` [Compound 8, (2aR,10S,19aS)-6-fluoro-10-methyl-1,2,2a,11,12,19a-hexahydro-4H-16,18-(metheno)cyclobuta[5,6][1,4] oxazino[3,4-i]pyrazolo[4,3-f]pyrido[3,2-l][1,4,8,10]oxatriazacyclotridecin-13(10H)-one], the results for the GI50 at BaF3 KIF5B-RET, on BaF3 KIF5B-RET_V804M and at BaF3 EML4-ALK were 342 nM, 1930 nM and 4000 nM, respectively. Besides, the IC50 in the assay with KG-1 was 189 nM; in the assay with KM12 cell (TPM3-TRKA), 0.3 nM.
In the same order, the values of `C[C@H]1CNC(=O)c2cnn3cc4c(nc23)N(Cc2cc(F)cnc2O1)[C@H]1CC[C@H]1O4` [Compound 9, (2aS,10S,19aR)-6-fluoro-10-methyl-1,2,2a,11,12,19a-hexahydro-4H-16,18-(metheno)cyclobuta[5,6][1,4] oxazino[3,4-i]pyrazolo[4,3-f]pyrido[3,2-l][1,4,8,10]oxatriazacyclotridecin-13(10H)-one] are 2360 nM, over 10000 nM, 8000 nM, 1000 nM and 3.3 nM.
In the same order, the values of `C[C@@H]1COc2ncc(F)cc2CN2c3nc4c(cnn4cc3O[C@H]3CC[C@H]32)C(=O)N1` [Compound 10, (2aR,11R,19aS)-6-fluoro-11-methyl-1,2,2a,11,12,19a-hexahydro-4H-16,18-(metheno)cyclobuta[5,6][1,4] oxazino[3,4-i]pyrazolo[4,3-f]pyrido[3,2-l][1,4,8,10]oxatriazacyclotridecin-13(10H)-one] are 274 nM, 1210 nM, 4000 nM, 78.3 nM and 0.2 nM.
Take `C[C@@H]1COc2ncc(F)cc2CN2c3nc4c(cnn4cc3O[C@@H]3CC[C@@H]32)C(=O)N1` [Compound 11, (2aS,11R,19aR)-6-fluoro-11-methyl-1,2,2a,11,12,19a-hexahydro-4H-16,18-(metheno)cyclobuta[5,6][1,4] oxazino[3,4-i]pyrazolo[4,3-f]pyrido[3,2-l][1,4,8,10]oxatriazacyclotridecin-13(10H)-one]: the values for the GI50 at BaF3 KIF5B-RET and on BaF3 KIF5B-RET_V804M were 839 nM and 3000 nM, respectively. Besides, the IC50 in the assay on KG-1 was 307 nM; in the assay on KM12 cell (TPM3-TRKA), 0.4 nM.
Take `O=C1N[C@H](C2CC2)COc2ncc(F)cc2CN2c3nc4c1cnn4cc3O[C@H]1CCC[C@H]12` [Compound 14, (3aR,12R,20aS)-12-cyclopropyl-7-fluoro-2,3,3a,12,13,20a-hexahydro-1H,5H-17-19-(metheno)cyclopenta[5,6][1,4] oxazino[4,3-i]pyrazolo[4,3-f]pyrido[3,2-l][1,4,8,10]oxatriazacyclotridecin-14(11H)-one]: the GI50 at BaF3 KIF5B-RET turned out to be 120 nM; on BaF3 KIF5B-RET_G810R, 530 nM; at BaF3 EML4-ALK it was 908 nM. The IC50 was 273 nM in the assay on KG-1 and 26.6 nM with KM12 cell (TPM3-TRKA).
Consider `C[C@H]1CNC(=O)c2cnn3cc4c(nc23)N(Cc2cc(F)cnc2O1)[C@H]1COC[C@H]1O4` [Compound 31, (3aS,11S,20aS)-7-fluoro-11-methyl-1,3,3a,12,13,20a-hexahydro-5H-17,19-(metheno)furo[3′,4′:5,6][1,4]oxazino[3,4-i]pyrazolo[4,3-f]pyrido[3,2-l][1,4,8,10]oxatriazacyclotridecin-14(11H)-one], for which the GI50 is 4000 nM on BaF3 KIF5B-RET, over 10000 nM on BaF3 KIF5B-RET_V804M and over 10000 nM at BaF3 KIF5B-RET_G810R. Moreover, the IC50 with KG-1 amounted to 10000 nM; in the assay with KM12 cell (TPM3-TRKA) it was 365 nM.
For `CC1(C)CCOc2ncc(F)cc2CN2c3nc4c(cnn4cc3O[C@H]3CCC[C@H]32)C(=O)N1` [Compound 34, (3aR,21aS)-7-fluoro-13,13-dimethyl-2,3,3a,11,12,13,14,21a-octahydro-1H,5H,15H-18,20-(metheno)cyclopenta[5,6][1,4]oxazino[4,3-e]pyrazolo[3,4-h]pyrido[2,3-b][1,5,7,11]oxatriazacyclotetradecin-15-one], the results for the GI50 on BaF3 KIF5B-RET, on BaF3 KIF5B-RET_G810R and at BaF3 EML4-ALK were 62.2 nM, 651 nM and 1000 nM, respectively. The IC50 in the assay on KG-1 was determined as 408 nM; in the assay on KM12 cell (TPM3-TRKA), 50 nM.
Take `C[C@@H]1CCNC(=O)c2cnn3cc4c(nc23)N(Cc2cc(F)cnc2O1)[C@@H]1CCC[C@@H]1O4` [Compound 35, (3aR,11R,21aS)-7-fluoro-11-methyl-2,3,3a,11,12,13,14,21a-octahydro-1H,5H,15H-18,20-(metheno)cyclopenta[5,6][1,4]oxazino[4,3-e]pyrazolo[3,4-h]pyrido[2,3-b][1,5,7,11]oxatriazacyclotetradecin-15-one]: the GI50 is 8.8 nM on BaF3 KIF5B-RET and 1100 nM on BaF3 EML4-ALK. In addition, the figures for the IC50 with KG-1 and in the assay on KM12 cell (TPM3-TRKA) were 55.7 nM and under 0.2 nM, respectively.
In the same order, the values of `CC(=O)N1C[C@@H]2Oc3cn4ncc5c4nc3N(Cc3cc(F)cnc3O[C@@H](C)CNC5=O)[C@@H]2C1` [Compound 36, (3aR,11S,20aS)-2-acetyl-7-fluoro-11-methyl-2,3,3a,12,13,20a-hexahydro-1H, 5H-17,19-(metheno)pyrazolo[4,3-f]pyrido [3,2-l]pyrrolo[3′,4′:5,6][1,4]oxazino[3,4-i][1,4,8,10]oxatriazacyclotridecin-14(11H)-one] are 8000 nM, over 10000 nM, 10000 nM and 1000 nM.
In the same order, the values of `CC(=O)N1C[C@H]2Oc3cn4ncc5c4nc3N(Cc3cc(F)cnc3O[C@@H](C)CNC5=O)[C@H]2C1` [Compound 37, (3aS,11S,20aR)-2-acetyl-7-fluoro-11-methyl-2,3,3a,12,13,20a-hexahydro-1H, 5H-17,19-(metheno)pyrazolo[4,3-f]pyrido [3,2-l]pyrrolo[3′,4′:5,6][1,4]oxazino[3,4-i][1,4,8,10]oxatriazacyclotridecin-14(11H)-one] are 8000 nM, over 10000 nM, 3000 nM and 1200 nM.
As for `O=C1N[C@H]2CC[C@H](C2)Oc2ncc(F)cc2CN2c3nc4c1cnn4cc3O[C@H]1CCC[C@H]12` [Compound 41, (3aR,11R,14S,22aS)-7-fluoro-2,3,3a,12,13,14,15,22a-octahydro-1H, 5H-11,14-metheno-19,21-(metheno)cyclopenta[5,6][1,4] oxazino[4,3-e]pyrazolo[3,4-h]pyrido[2,3-b][1,5,7,11]oxatriazacyclopentadecin-16(11H)-one], the GI50 at BaF3 KIF5B-RET came to 5.1 nM; on BaF3 KIF5B-RET_G810R, 156 nM; at BaF3 EML4-ALK it was 1450 nM. The IC50 was 389 nM in the assay with KG-1 and 431 nM with KM12 cell (TPM3-TRKA).
As for `O=C1N[C@@H]2CC[C@@H](C2)Oc2ncc(F)cc2CN2c3nc4c1cnn4cc3O[C@H]1CCC[C@H]12` [Compound 42, (3aR,11S,14R,22aS)-7-fluoro-2,3,3a,12,13,14,15,22a-octahydro-1H, 5H-11,14-metheno-19,21-(metheno)cyclopenta[5,6][1,4] oxazino[4,3-e]pyrazolo[3,4-h]pyrido[2,3-b][1,5,7,11]oxatriazacyclopentadecin-16(11H)-one], the GI50 at BaF3 KIF5B-RET came out at 0.5 nM; on BaF3 KIF5B-RET_G810R, 17.4 nM; on BaF3 EML4-ALK it was 338 nM. The IC50 in the assay on KG-1 amounted to 41 nM; in the assay with KM12 cell (TPM3-TRKA), 9.8 nM.
In the same order, the values of `O=C1NC[C@@H](O)COc2ncc(F)cc2CN2c3nc4c1cnn4cc3O[C@H]1CCC[C@H]12` [Compound 43, (3aR,12R,21aS)-7-fluoro-12-hydroxy-2,3,3a,11,12,13,14,21a-octahydro-1H, 5H,15H-18,20-(metheno)cyclopenta[5,6][1,4] oxazino[4,3-e]pyrazolo[3,4-h]pyrido[2,3-b][1,5,7,11]oxatriazacyclotetradecin-15-one] are 68.9 nM, 396 nM, 2990 nM, 359 nM and 109 nM.
